Target: T1, TgFPPS (Toxoplasma gondii, UniProt Q197X6)
T1 construct: gene FPPS; bifunctional enzyme making FPP and GGPP; enzyme assay as in Szajnman et al., 2008
T1 sequence (Q197X6 1-646): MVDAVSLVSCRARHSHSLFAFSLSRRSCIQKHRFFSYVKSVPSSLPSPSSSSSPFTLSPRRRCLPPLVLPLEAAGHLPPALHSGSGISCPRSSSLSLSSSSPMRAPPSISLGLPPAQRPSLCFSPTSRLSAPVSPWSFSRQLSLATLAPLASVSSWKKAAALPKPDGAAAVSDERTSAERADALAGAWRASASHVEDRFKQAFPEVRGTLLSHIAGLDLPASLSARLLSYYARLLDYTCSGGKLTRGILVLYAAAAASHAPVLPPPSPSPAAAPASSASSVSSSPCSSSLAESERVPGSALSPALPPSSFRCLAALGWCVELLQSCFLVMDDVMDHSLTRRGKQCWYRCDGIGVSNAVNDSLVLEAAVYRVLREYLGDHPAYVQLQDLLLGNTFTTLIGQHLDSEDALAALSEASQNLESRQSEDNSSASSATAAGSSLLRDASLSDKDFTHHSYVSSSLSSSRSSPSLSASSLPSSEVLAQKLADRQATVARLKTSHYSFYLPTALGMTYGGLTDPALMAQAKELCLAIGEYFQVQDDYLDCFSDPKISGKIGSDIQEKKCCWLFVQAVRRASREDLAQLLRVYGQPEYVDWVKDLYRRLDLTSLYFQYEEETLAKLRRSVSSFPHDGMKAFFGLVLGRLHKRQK
Test: FPPS enzymatic activity assay
Format: biochemical
Description: FPPS enzymatic activity assay on TgFPPS

| Structure (SMILES) | IC50 |
| --- | --- |
| C=C(C)CNCC(P(=O)(O)O)P(=O)(O)O [compound 19, 1-[(2-Methylall-1-ylamino)ethyl] 1,1-bisphosphonic Acid] | 0.183 ± 0.063 µM |
| CC(C)=CCC/C(C)=C/CSCC(P(=O)(O)O)P(=O)(O)O [compound 44, 1-[((E)-3,7-Dimethylocta-2,6-diene-1-thio)ethyl] 1,1-bisphosphonic Acid] | 0.313 ± 0.027 µM |
| CCCCNCC(F)(P(=O)(O)O)P(=O)(O)O [compound 55, 1-[(n-But-1-ylamino)ethyl]-1-fluoro-1,1-bisphosphonic Acid] | 0.091 ± 0.032 µM |

Source: publication PMC6155738, “Antiparasitic Activity of Sulfur- and Fluorine-Containing Bisphosphonates against Trypanosomatids and Apicomplexan Parasites” (Molecules : A Journal of Synthetic Chemistry and Natural …, 2017)
